Experimental findings from ChEMBL document CHEMBL5728742, “Pyrrolo-pyridine derivative compound, method for preparing same, and pharmaceutical composition containing same as active ingredient for prevention or treatment of protein kinase-related diseases” (2021) are described below.

pIC50: −log10 of the molar value.

This assay deals with Dual specificity tyrosine-phosphorylation-regulated kinase 1A (Homo sapiens, UniProt Q13627). Put plainly: Then, DYRK1A kinase was added thereto, followed by mixing well. Each compound of Examples was added thereto by using acoustic technology (Echo550; nanoliter range). […] After reacting at room temperature for 2 hours, spotting was performed on P81 exchange paper. Upon completion of the reaction, kinase activity was detected using a filter-binding method.

Compound `CCNc1cc(Nc2cc(F)c(C(=O)NC3CCN(C)CC3)cc2OC)nc2[nH]cc(C(F)(F)F)c12` showed a pIC50 below 7.00.
